Measurements published in ChEMBL document CHEMBL1201862, “PubChem BioAssay data set” (2004).
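The compound was tested at five concentrations on cells cultured in 96-well plates, with a 48-hour exposure period. The concentration for 50% growth inhibition is given as GI50.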 Activity calls are given as the source filed them. Rule as the data show it: active = GI50 up to about 1.1 µM and inactive = higher.

How the values were obtained:
Test in all cases: NCI-60 cell line screen, 48 h
[1] = test system: T47D
[2] = test system: OVCAR-8
[3] = test system: HCT-116
[4] = test system: Hs-578T
[5] = test system: KM12
[6] = test system: RXF 393
[7] = test system: ACHN
[8] = test system: Malme-3M
[9] = test system: MDA-N
[10] = test system: TK-10
[11] = test system: NCI-H460
[12] = test system: SNB-19
[13] = test system: OVCAR-5
[14] = test system: A549
[15] = test system: EKVX
[16] = test system: HL-60
[17] = test system: K562
[18] = test system: UACC-62
[19] = test system: HOP-62
[20] = test system: NCI-H522

SMILES | GI50 [1] | GI50 [2] | GI50 [3] | GI50 [4] | GI50 [5] | GI50 [6] | GI50 [7] | GI50 [8] | GI50 [9] | GI50 [10] | GI50 [11] | GI50 [12] | GI50 [13] | GI50 [14] | GI50 [15] | GI50 [16] | GI50 [17] | GI50 [18] | GI50 [19] | GI50 [20]
Cc1ccccc1NC(=O)O/N=C(\Cl)C(C)C | 3.79 µM (inactive) | 17.5 µM (inactive) | 2.18 µM (inactive) | 22.3 µM (inactive) | 18.6 µM (inactive) | 12.6 µM (inactive) | 1.69 µM (inactive) | 2.36 µM (inactive) | 2.72 µM (inactive) | 3.94 µM (inactive) | 17.8 µM (inactive) | 20.8 µM (inactive) | 20.9 µM (inactive) | 19.1 µM (inactive) | 2.29 µM (inactive) | 2.46 µM (inactive) | 1.46 µM (inactive) | 14.9 µM (inactive) | 17.3 µM (inactive) | 1.68 µM (inactive)
O=C1c2c(Br)sc(Br)c2[C@@H](NC(=O)C(F)(F)F)C1Br (some centres undefined) | 4.11 µM (inactive) | 2.68 µM (inactive) | – | 7.94 µM (inactive) | 5.66 µM (inactive) | 2.14 µM (inactive) | 2.5 µM (inactive) | 2.24 µM (inactive) | 2.87 µM (inactive) | 16.8 µM (inactive) | 11.7 µM (inactive) | 13 µM (inactive) | 10.7 µM (inactive) | 17.1 µM (inactive) | 3.57 µM (inactive) | 0.631 µM (active) | 1.93 µM (inactive) | 3.66 µM (inactive) | 12.9 µM (inactive) | 2.03 µM (inactive)
Cc1nc2c(cc1OCc1ccccc1)C(=O)C1=C(C2=O)C2OC(=O)CC2OC1(C)C (centres undefined) | 0.288 µM (active) | 2.72 µM (inactive) | 0.28 µM (active) | 0.169 µM (active) | 0.531 µM (active) | 0.349 µM (active) | 0.619 µM (active) | 0.474 µM (active) | 0.404 µM (active) | 1.43 µM (inactive) | 1.32 µM (inactive) | 2.49 µM (inactive) | 0.973 µM (active) | 6.44 µM (inactive) | 1.55 µM (inactive) | 0.0697 µM (active) | – | 0.174 µM (active) | 1.52 µM (inactive) | 0.149 µM (active)
CNc1cc2oc(=O)cc(C)c2cc1C | > 100 µM (inactive) | > 100 µM (inactive) | > 100 µM (inactive) | 79.1 µM (inactive) | – | > 100 µM (inactive) | > 100 µM (inactive) | > 100 µM (inactive) | > 100 µM (inactive) | 86.3 µM (inactive) | > 100 µM (inactive) | > 100 µM (inactive) | > 100 µM (inactive) | > 100 µM (inactive) | 59.6 µM (inactive) | 25.4 µM (inactive) | > 100 µM (inactive) | 72.6 µM (inactive) | > 100 µM (inactive) | > 100 µM (inactive)
CCCCCCCCCCCCc1ccc(S(=O)(=O)O)cc1 | > 100 µM (inactive) | > 100 µM (inactive) | > 100 µM (inactive) | > 100 µM (inactive) | > 100 µM (inactive) | > 100 µM (inactive) | > 100 µM (inactive) | > 100 µM (inactive) | > 100 µM (inactive) | > 100 µM (inactive) | > 100 µM (inactive) | > 100 µM (inactive) | > 100 µM (inactive) | > 100 µM (inactive) | > 100 µM (inactive) | > 100 µM (inactive) | > 100 µM (inactive) | 34.4 µM (inactive) | > 100 µM (inactive) | –
Fc1ccc2c(c1)nc1n2C(c2c(Cl)cccc2Cl)SC1 (centres undefined) | 14.2 µM (inactive) | 15.6 µM (inactive) | 6.41 µM (inactive) | 18.3 µM (inactive) | 12 µM (inactive) | 17.3 µM (inactive) | 16.9 µM (inactive) | 13 µM (inactive) | 12.1 µM (inactive) | 17.5 µM (inactive) | 8.17 µM (inactive) | 14.1 µM (inactive) | 15.5 µM (inactive) | 14.9 µM (inactive) | – | 12.3 µM (inactive) | – | 11.8 µM (inactive) | 14.4 µM (inactive) | 14.7 µM (inactive)
COc1ccc(-c2cc(=O)c3c(OC)c(OC)c(OC)cc3o2)cc1 | 17.8 µM (inactive) | 35.2 µM (inactive) | 32.6 µM (inactive) | 35.6 µM (inactive) | – | 30.1 µM (inactive) | 24.4 µM (inactive) | 38 µM (inactive) | 40.6 µM (inactive) | 36 µM (inactive) | 24 µM (inactive) | 45 µM (inactive) | 44 µM (inactive) | 27.1 µM (inactive) | 37.4 µM (inactive) | 11.7 µM (inactive) | 34.4 µM (inactive) | 27.5 µM (inactive) | 21.1 µM (inactive) | 23.7 µM (inactive)
O=C(O)c1cc2ccccc2c(/N=N/c2ccccc2)c1O | 38.1 µM (inactive) | 37.2 µM (inactive) | 35.4 µM (inactive) | 6.82 µM (inactive) | 14.9 µM (inactive) | 34.9 µM (inactive) | 26.2 µM (inactive) | 13.1 µM (inactive) | 19.1 µM (inactive) | 29 µM (inactive) | – | 26.1 µM (inactive) | 24.9 µM (inactive) | 18.1 µM (inactive) | 23.4 µM (inactive) | 10 µM (inactive) | 36.8 µM (inactive) | 17.4 µM (inactive) | 14.8 µM (inactive) | 26.6 µM (inactive)
COc1ccc(C(c2ccc3c(c2)OCO3)N2C(=O)CCC2C(=O)O)cc1 (centres undefined) | > 100 µM (inactive) | > 100 µM (inactive) | > 100 µM (inactive) | > 10 µM (inactive) | > 100 µM (inactive) | – | > 100 µM (inactive) | > 100 µM (inactive) | > 100 µM (inactive) | > 100 µM (inactive) | > 100 µM (inactive) | > 100 µM (inactive) | > 100 µM (inactive) | > 100 µM (inactive) | > 100 µM (inactive) | > 100 µM (inactive) | > 100 µM (inactive) | > 100 µM (inactive) | > 100 µM (inactive) | > 100 µM (inactive)
CN(N=O)C(=O)NNC(=O)N(C)N=O | 79.1 µM (inactive) | 55.3 µM (inactive) | 74 µM (inactive) | > 100 µM (inactive) | > 100 µM (inactive) | 26.8 µM (inactive) | > 100 µM (inactive) | – | > 100 µM (inactive) | > 100 µM (inactive) | 42.4 µM (inactive) | > 100 µM (inactive) | > 100 µM (inactive) | > 100 µM (inactive) | 29.2 µM (inactive) | 31.6 µM (inactive) | 66.1 µM (inactive) | 92.5 µM (inactive) | > 100 µM (inactive) | 27 µM (inactive)
Cc1cc(C)c2c(-c3ccccc3)cc(=O)[nH]c2c1 | > 100 µM (inactive) | > 100 µM (inactive) | > 100 µM (inactive) | > 100 µM (inactive) | > 100 µM (inactive) | > 100 µM (inactive) | > 100 µM (inactive) | > 100 µM (inactive) | > 100 µM (inactive) | > 100 µM (inactive) | > 100 µM (inactive) | – | > 100 µM (inactive) | > 100 µM (inactive) | > 100 µM (inactive) | > 100 µM (inactive) | > 100 µM (inactive) | > 100 µM (inactive) | > 100 µM (inactive) | > 100 µM (inactive)
c1ccc(COc2ncccc2C2SCCCS2)cc1 | 32.9 µM (inactive) | > 100 µM (inactive) | > 100 µM (inactive) | > 100 µM (inactive) | > 100 µM (inactive) | 66.8 µM (inactive) | > 100 µM (inactive) | > 100 µM (inactive) | > 100 µM (inactive) | > 100 µM (inactive) | – | > 100 µM (inactive) | > 100 µM (inactive) | > 100 µM (inactive) | > 100 µM (inactive) | > 10 µM (inactive) | 96.4 µM (inactive) | > 100 µM (inactive) | > 100 µM (inactive) | > 100 µM (inactive)
CCCCCCCc1ccc(-c2nnc(/N=N/c3ccc(OCCCCC)cc3)s2)s1 | > 100 µM (inactive) | – | > 100 µM (inactive) | > 100 µM (inactive) | > 100 µM (inactive) | > 100 µM (inactive) | > 100 µM (inactive) | > 100 µM (inactive) | > 100 µM (inactive) | > 100 µM (inactive) | > 100 µM (inactive) | > 100 µM (inactive) | > 100 µM (inactive) | > 100 µM (inactive) | > 100 µM (inactive) | > 100 µM (inactive) | – | > 100 µM (inactive) | > 100 µM (inactive) | > 100 µM (inactive)
O=C1OC(c2ccccc2)=N/C1=C\c1ccc(Cl)cc1 | > 100 µM (inactive) | > 100 µM (inactive) | > 100 µM (inactive) | > 100 µM (inactive) | > 100 µM (inactive) | > 100 µM (inactive) | > 100 µM (inactive) | – | > 100 µM (inactive) | > 100 µM (inactive) | > 100 µM (inactive) | > 100 µM (inactive) | > 100 µM (inactive) | > 100 µM (inactive) | > 100 µM (inactive) | > 100 µM (inactive) | > 100 µM (inactive) | > 100 µM (inactive) | > 100 µM (inactive) | 50.6 µM (inactive)
Cc1nc(C)c(C(=O)NNC(N)=S)cc1C(=O)NNC(N)=S | > 100 µM (inactive) | > 100 µM (inactive) | > 100 µM (inactive) | > 100 µM (inactive) | > 100 µM (inactive) | > 100 µM (inactive) | > 100 µM (inactive) | – | > 100 µM (inactive) | > 100 µM (inactive) | > 100 µM (inactive) | > 100 µM (inactive) | > 100 µM (inactive) | > 100 µM (inactive) | > 100 µM (inactive) | > 100 µM (inactive) | > 100 µM (inactive) | > 100 µM (inactive) | > 100 µM (inactive) | > 100 µM (inactive)
